From ChEMBL document CHEMBL1201862, “PubChem BioAssay data set” (2004)
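A five-concentration, 48-hour dose response in 96-well plates underlies each endpoint, interpolated linearly between surrounding concentrations. Abbreviation: GI50, concentration required for 50% inhibition of growth.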 Calls of active or inactive are those of the source. Cut-off read from the data, not from the text of the source: active = GI50 up to about 1.1 µM and inactive = higher.

Key:
Assay in all cases: inhibition of tumour cell growth, NCI panel, 48 h
MDA-N = test system: MDA-N
RPMI-8226 = test system: RPMI-8226
OVCAR-8 = test system: OVCAR-8
SF-295 = test system: SF-295
TK-10 = test system: TK-10
HL-60 = test system: HL-60
PC-3 = test system: PC-3
A549 = test system: A549
SR = test system: SR
KM12 = test system: KM12
Malme-3M = test system: Malme-3M
MCF7 = test system: MCF7
SF-539 = test system: SF-539
HT-29 = test system: HT-29
IGROV-1 = test system: IGROV-1
MDA-MB-435 = test system: MDA-MB-435
SK-MEL-5 = test system: SK-MEL-5
K562 = test system: K562
NCI-H23 = test system: NCI-H23
T47D = test system: T47D
UACC-257 = test system: UACC-257
RXF 393 = test system: RXF 393
BT-549 = test system: BT-549
SF-268 = test system: SF-268
HCT-15 = test system: HCT-15
OVCAR-5 = test system: OVCAR-5
CCRF-CEM = test system: CCRF-CEM
SNB-19 = test system: SNB-19
ACHN = test system: ACHN
DU-145 = test system: DU-145
OVCAR-3 = test system: OVCAR-3
HOP-62 = test system: HOP-62
SK-MEL-28 = test system: SK-MEL-28
UO-31 = test system: UO-31
U-251 = test system: U-251
SK-OV-3 = test system: SK-OV-3
HCC 2998 = test system: HCC 2998
EKVX = test system: EKVX
M14 = test system: M14
LOX IMVI = test system: LOX IMVI
MDA-MB-231 = test system: MDA-MB-231
OVCAR-4 = test system: OVCAR-4
HCT-116 = test system: HCT-116
COLO 205 = test system: COLO 205
SW-620 = test system: SW-620
HOP-92 = test system: HOP-92
Hs-578T = test system: Hs-578T
786-0 = test system: 786-0
MOLT-4 = test system: MOLT-4
NCI/ADR-RES = test system: NCI/ADR-RES
SNB-75 = test system: SNB-75
SN12C = test system: SN12C
UACC-62 = test system: UACC-62
NCI-H226 = test system: NCI-H226
NCI-H522 = test system: NCI-H522
NCI-H460 = test system: NCI-H460
SK-MEL-2 = test system: SK-MEL-2
CAKI-1 = test system: CAKI-1
A498 = test system: A498

SMILES: CCOC(=O)OC1C(Br)C2CCC1(C)C2(C)C (centres undefined)
- GI50 (MDA-N): 15 µM (inactive)
- GI50 (RPMI-8226): 5.46 µM (inactive)
- GI50 (OVCAR-8): 16 µM (inactive)
- GI50 (SF-295): 15.3 µM (inactive)
- GI50 (TK-10): 14.2 µM (inactive)
- GI50 (HL-60): 6.21 µM (inactive)
- GI50 (PC-3): 11.3 µM (inactive)
- GI50 (A549): 16 µM (inactive)
- GI50 (SR): 2.39 µM (inactive)
- GI50 (KM12): 14 µM (inactive)
- GI50 (Malme-3M): 16.7 µM (inactive)
- GI50 (MCF7): 15 µM (inactive)
- GI50 (SF-539): 14.1 µM (inactive)
- GI50 (HT-29): 6.05 µM (inactive)
- GI50 (IGROV-1): 18.7 µM (inactive)
- GI50 (MDA-MB-435): 11.4 µM (inactive)
- GI50 (SK-MEL-5): 14.5 µM (inactive)
- GI50 (K562): 5.79 µM (inactive)
- GI50 (NCI-H23): 17.2 µM (inactive)
- GI50 (T47D): 15.6 µM (inactive)
- GI50 (UACC-257): 15.9 µM (inactive)
- GI50 (RXF 393): 10.9 µM (inactive)
- GI50 (BT-549): 17.2 µM (inactive)
- GI50 (SF-268): 13.7 µM (inactive)
- GI50 (HCT-15): 13.7 µM
- GI50 (OVCAR-5): 17.7 µM (inactive)
- GI50 (CCRF-CEM): 4.88 µM (inactive)
- GI50 (SNB-19): 14.6 µM (inactive)
- GI50 (ACHN): 15.3 µM (inactive)
- GI50 (DU-145): 18.7 µM (inactive)
- GI50 (OVCAR-3): 14.7 µM (inactive)
- GI50 (HOP-62): 16.6 µM (inactive)
- GI50 (SK-MEL-28): 15.7 µM (inactive)
- GI50 (UO-31): 12 µM (inactive)
- GI50 (U-251): 13 µM (inactive)
- GI50 (SK-OV-3): 15.7 µM (inactive)
- GI50 (HCC 2998): 12.3 µM (inactive)
- GI50 (EKVX): 15.5 µM (inactive)
- GI50 (M14): 12.6 µM (inactive)
- GI50 (LOX IMVI): 6.59 µM (inactive)
- GI50 (MDA-MB-231): 11.9 µM (inactive)
- GI50 (OVCAR-4): 11.7 µM (inactive)
- GI50 (HCT-116): 6.44 µM (inactive)
- GI50 (COLO 205): 13 µM (inactive)
- GI50 (SW-620): 16.1 µM (inactive)
- GI50 (HOP-92): 13.2 µM (inactive)
- GI50 (Hs-578T): 13.8 µM (inactive)
- GI50 (786-0): 14.1 µM (inactive)
- GI50 (MOLT-4): 4.6 µM (inactive)
- GI50 (NCI/ADR-RES): 15.5 µM (inactive)
- GI50 (SNB-75): 11.1 µM (inactive)
- GI50 (SN12C): 14.4 µM (inactive)
- GI50 (UACC-62): 17.7 µM (inactive)
- GI50 (NCI-H226): 12 µM (inactive)
- GI50 (NCI-H522): 15.2 µM (inactive)
- GI50 (NCI-H460): 4.79 µM (inactive)

SMILES: Cc1ccsc1/C=N/Nc1nncc2ccccc12
- GI50 (MDA-N): > 100 µM (inactive)
- GI50 (RPMI-8226): 81.8 µM (inactive)
- GI50 (OVCAR-8): > 100 µM (inactive)
- GI50 (SF-295): > 100 µM (inactive)
- GI50 (TK-10): > 100 µM (inactive)
- GI50 (PC-3): 34.3 µM (inactive)
- GI50 (A549): 96.4 µM (inactive)
- GI50 (SK-MEL-2): 14.1 µM (inactive)
- GI50 (KM12): > 100 µM (inactive)
- GI50 (CAKI-1): > 100 µM (inactive)
- GI50 (MCF7): 37 µM (inactive)
- GI50 (HT-29): > 100 µM (inactive)
- GI50 (IGROV-1): 15.9 µM (inactive)
- GI50 (MDA-MB-435): > 100 µM (inactive)
- GI50 (SK-MEL-5): 96.4 µM (inactive)
- GI50 (K562): > 100 µM (inactive)
- GI50 (NCI-H23): > 100 µM (inactive)
- GI50 (T47D): > 100 µM (inactive)
- GI50 (UACC-257): > 100 µM (inactive)
- GI50 (RXF 393): 15.8 µM (inactive)
- GI50 (BT-549): > 100 µM (inactive)
- GI50 (SF-268): 93.3 µM (inactive)
- GI50 (HCT-15): > 100 µM
- GI50 (OVCAR-5): > 100 µM (inactive)
- GI50 (CCRF-CEM): 53.2 µM (inactive)
- GI50 (SNB-19): > 100 µM (inactive)
- GI50 (ACHN): > 100 µM (inactive)
- GI50 (DU-145): > 100 µM (inactive)
- GI50 (OVCAR-3): > 100 µM (inactive)
- GI50 (HOP-62): > 100 µM (inactive)
- GI50 (SK-MEL-28): > 100 µM (inactive)
- GI50 (UO-31): 21.9 µM (inactive)
- GI50 (U-251): 58.3 µM (inactive)
- GI50 (SK-OV-3): 70.6 µM (inactive)
- GI50 (HCC 2998): > 100 µM (inactive)
- GI50 (EKVX): > 100 µM (inactive)
- GI50 (M14): > 100 µM (inactive)
- GI50 (LOX IMVI): 97.1 µM (inactive)
- GI50 (MDA-MB-231): > 100 µM (inactive)
- GI50 (OVCAR-4): > 100 µM (inactive)
- GI50 (HCT-116): > 100 µM (inactive)
- GI50 (COLO 205): > 100 µM (inactive)
- GI50 (SW-620): > 100 µM (inactive)
- GI50 (HOP-92): > 100 µM (inactive)
- GI50 (Hs-578T): > 100 µM (inactive)
- GI50 (786-0): 90.2 µM (inactive)
- GI50 (MOLT-4): 44.8 µM (inactive)
- GI50 (A498): > 100 µM (inactive)
- GI50 (NCI/ADR-RES): > 100 µM (inactive)
- GI50 (SNB-75): > 100 µM (inactive)
- GI50 (SN12C): > 100 µM (inactive)
- GI50 (UACC-62): > 100 µM (inactive)
- GI50 (NCI-H226): > 100 µM (inactive)
